Results: the supplement of paper PMC8976852
± gives the standard deviation of the averaged measurements.

What was measured:
Assay in all cases: activity (1 - area under the dose-response curve within the screened range) (fraction); higher = more sensitive
Details in all cases: treatment time: 72 h
HCM-SANG-0532-C20 = system: HCM-SANG-0532-C20 (colorectal cancer organoid)
Description: (§1)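 Patient-derived cancer organoids (colorectal and oesophageal, HCM-SANG models) were grown for up to 6 months in 5% or 80% ECM (BME-2), then seeded in 384-well plates on an ECM layer and treated with 72 compounds for 3 days. Each compound used a 7-point half-log dilution series spanning a 1000-fold range, in technical triplicate and biological duplicate. Dose-response curves were fitted with a non-linear mixed effects model; fits with RMSE > 0.3 were removed, and activity = 1 - AUC within the screened dose range (0 = no activity, 1 = maximum).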

HCM-SANG-0291-C15 = system: HCM-SANG-0291-C15 (oesophageal cancer organoid)
Description: as §1

HCM-SANG-0266-C20 = system: HCM-SANG-0266-C20 (colorectal cancer organoid)
Description: as §1

HCM-SANG-0270-C20 = system: HCM-SANG-0270-C20 (colorectal cancer organoid)
Description: as §1

[1] = ECM percentage in culture prior to screening 5 %
[2] = ECM percentage in culture prior to screening 80 %

In the case of `C[C@@H]1COCCN1c1cc(C2([S@](C)(=N)=O)CC2)nc(-c2cc[nH]c3nccc2-3)n1` [AZD6738], the activity (HCM-SANG-0532-C20; [1]) is reported as 0.116 ± 0.065, the activity (HCM-SANG-0532-C20; [2]) is reported as 0.108 ± 0.026 and the activity (HCM-SANG-0291-C15; [1]) is reported as 0.199 ± 0.027. For the same compound, the activity (HCM-SANG-0291-C15; [2]) was 0.211 ± 0.037, the activity (HCM-SANG-0266-C20; [1]) was 0.185 ± 0.037 and the activity (HCM-SANG-0266-C20; [2]) was 0.178 ± 0.033. For the same compound, the activity (HCM-SANG-0270-C20; [1]) was 0.09 ± 0.039 and the activity (HCM-SANG-0270-C20; [2]) was 0.0864 ± 0.052.

`NC(=O)Nc1cc(-c2cccc(F)c2)sc1C(=O)N[C@H]1CCCNC1` [AZD7762] was tested, and the activity (HCM-SANG-0532-C20; [1]) was 0.14 ± 0.056, the activity (HCM-SANG-0532-C20; [2]) was 0.177 ± 0.035 and the activity (HCM-SANG-0291-C15; [1]) was 0.269 ± 0.016. It also gave an activity (HCM-SANG-0291-C15; [2]) of 0.248 ± 0.043, an activity (HCM-SANG-0266-C20; [1]) of 0.287 ± 0.041 and an activity (HCM-SANG-0266-C20; [2]) of 0.232 ± 0.029. It also gave an activity (HCM-SANG-0270-C20; [1]) of 0.23 ± 0.049 and an activity (HCM-SANG-0270-C20; [2]) of 0.199 ± 0.05.

`COc1ccc(-c2ccc3c(N4CCOC[C@@H]4C)nc(N4CCOC[C@@H]4C)nc3n2)cc1CO` [AZD8055] gave an activity (HCM-SANG-0532-C20; [1]) of 0.237 ± 0.076, an activity (HCM-SANG-0532-C20; [2]) of 0.301 ± 0.039 and an activity (HCM-SANG-0291-C15; [1]) of 0.076 ± 0.03. The activity (HCM-SANG-0291-C15; [2]) was 0.0634 ± 0.032, the activity (HCM-SANG-0266-C20; [1]) was 0.298 ± 0.097 and the activity (HCM-SANG-0266-C20; [2]) was 0.251 ± 0.12. For the same compound, the activity (HCM-SANG-0270-C20; [1]) was 0.117 ± 0.043 and the activity (HCM-SANG-0270-C20; [2]) was 0.0699 ± 0.062.

With `CN(C)C/C=C/C(=O)Nc1cc2c(Nc3ccc(F)c(Cl)c3)ncnc2cc1O[C@H]1CCOC1` [Afatinib] the activity (HCM-SANG-0532-C20; [1]) was 0.171 ± 0.1, the activity (HCM-SANG-0532-C20; [2]) was 0.243 ± 0.07 and the activity (HCM-SANG-0291-C15; [1]) was 0.414 ± 0.064. For the same compound, the activity (HCM-SANG-0291-C15; [2]) was 0.316 ± 0.06, the activity (HCM-SANG-0266-C20; [1]) was 0.308 ± 0.13 and the activity (HCM-SANG-0266-C20; [2]) was 0.217 ± 0.11. It also gave an activity (HCM-SANG-0270-C20; [1]) of 0.311 ± 0.11 and an activity (HCM-SANG-0270-C20; [2]) of 0.153 ± 0.13.

Work on `COc1cc(Nc2ncc3c(n2)-c2ccc(Cl)cc2C(c2c(F)cccc2OC)=NC3)ccc1C(=O)O` [Alisertib] yielded an activity (HCM-SANG-0532-C20; [1]) of 0.185 ± 0.063, an activity (HCM-SANG-0532-C20; [2]) of 0.148 ± 0.027 and an activity (HCM-SANG-0291-C15; [1]) of 0.0593 ± 0.019. The activity (HCM-SANG-0291-C15; [2]) was 0.0714 ± 0.026, the activity (HCM-SANG-0266-C20; [1]) was 0.266 ± 0.08 and the activity (HCM-SANG-0266-C20; [2]) was 0.31 ± 0.081. The activity (HCM-SANG-0270-C20; [1]) was 0.104 ± 0.078 and the activity (HCM-SANG-0270-C20; [2]) was 0.124 ± 0.06.

`Cc1nc(NC(=O)N2CCC[C@H]2C(N)=O)sc1-c1ccnc(C(C)(C)C(F)(F)F)c1` [Alpelisib] showed an activity (HCM-SANG-0532-C20; [1]) of 0.0918 ± 0.087, an activity (HCM-SANG-0532-C20; [2]) of 0.0904 ± 0.033 and an activity (HCM-SANG-0291-C15; [1]) of 0.0264 ± 0.0063. For the same compound, the activity (HCM-SANG-0291-C15; [2]) was 0.0261 ± 0.011, the activity (HCM-SANG-0266-C20; [1]) was 0.13 ± 0.052 and the activity (HCM-SANG-0266-C20; [2]) was 0.0656 ± 0.019. It also gave an activity (HCM-SANG-0270-C20; [1]) of 0.036 ± 0.027 and an activity (HCM-SANG-0270-C20; [2]) of 0.0216 ± 0.0057.

Work on `CNC(=O)c1ccccc1Sc1ccc2c(/C=C/c3ccccn3)n[nH]c2c1` [Axitinib] yielded an activity (HCM-SANG-0532-C20; [1]) of 0.112 ± 0.021, an activity (HCM-SANG-0532-C20; [2]) of 0.135 ± 0.035 and an activity (HCM-SANG-0291-C15; [1]) of 0.0739 ± 0.021. The activity (HCM-SANG-0291-C15; [2]) was 0.056 ± 0.023, the activity (HCM-SANG-0266-C20; [1]) was 0.147 ± 0.033 and the activity (HCM-SANG-0266-C20; [2]) was 0.143 ± 0.047. It also gave an activity (HCM-SANG-0270-C20; [1]) of 0.125 ± 0.03 and an activity (HCM-SANG-0270-C20; [2]) of 0.109 ± 0.037.

`CC[C@@H]1C(=O)N(C)c2cnc(Nc3ccc(C(=O)NC4CCN(C)CC4)cc3OC)nc2N1C1CCCC1` [BI-2536] was tested, and the activity (HCM-SANG-0532-C20; [1]) was 0.292 ± 0.087, the activity (HCM-SANG-0532-C20; [2]) was 0.335 ± 0.046 and the activity (HCM-SANG-0291-C15; [1]) was 0.429 ± 0.043. For the same compound, the activity (HCM-SANG-0291-C15; [2]) was 0.464 ± 0.06, the activity (HCM-SANG-0266-C20; [1]) was 0.439 ± 0.041 and the activity (HCM-SANG-0266-C20; [2]) was 0.436 ± 0.036. For the same compound, the activity (HCM-SANG-0270-C20; [1]) was 0.305 ± 0.17 and the activity (HCM-SANG-0270-C20; [2]) was 0.311 ± 0.11.

Compound `CC(C)C[C@H](NC(=O)[C@H](Cc1ccccc1)NC(=O)c1cnccn1)B(O)O` [Bortezomib] has an activity (HCM-SANG-0532-C20; [1]) of 0.201 ± 0.028, an activity (HCM-SANG-0532-C20; [2]) of 0.212 ± 0.031 and an activity (HCM-SANG-0291-C15; [1]) of 0.208 ± 0.027. For the same compound, the activity (HCM-SANG-0291-C15; [2]) was 0.234 ± 0.034, the activity (HCM-SANG-0266-C20; [1]) was 0.201 ± 0.023 and the activity (HCM-SANG-0266-C20; [2]) was 0.228 ± 0.015. It also gave an activity (HCM-SANG-0270-C20; [1]) of 0.16 ± 0.023 and an activity (HCM-SANG-0270-C20; [2]) of 0.167 ± 0.03.

`CC[C@@]1(O)C(=O)OCc2c1cc1n(c2=O)Cc2cc3ccccc3nc2-1` [Camptothecin] was tested, and the activity (HCM-SANG-0532-C20; [1]) was 0.106 ± 0.034, the activity (HCM-SANG-0532-C20; [2]) was 0.156 ± 0.023 and the activity (HCM-SANG-0291-C15; [1]) was 0.262 ± 0.021. It also gave an activity (HCM-SANG-0291-C15; [2]) of 0.258 ± 0.022, an activity (HCM-SANG-0266-C20; [1]) of 0.169 ± 0.031 and an activity (HCM-SANG-0266-C20; [2]) of 0.147 ± 0.071. The activity (HCM-SANG-0270-C20; [1]) was 0.133 ± 0.028 and the activity (HCM-SANG-0270-C20; [2]) was 0.0946 ± 0.022.

In the case of `O=C(O)C1(C(=O)O)CCC1.[NH2-].[NH2-].[Pt+2]` [Carboplatin], the activity (HCM-SANG-0532-C20; [1]) is reported as 0.0573 ± 0.015, the activity (HCM-SANG-0532-C20; [2]) is reported as 0.0352 ± 0.013 and the activity (HCM-SANG-0291-C15; [1]) is reported as 0.0362 ± 0.017. The activity (HCM-SANG-0291-C15; [2]) was 0.0271 ± 0.011, the activity (HCM-SANG-0266-C20; [1]) was 0.0268 ± 0.0076 and the activity (HCM-SANG-0266-C20; [2]) was 0.0392 ± 0.024. For the same compound, the activity (HCM-SANG-0270-C20; [1]) was 0.0338 ± 0.02 and the activity (HCM-SANG-0270-C20; [2]) was 0.0325 ± 0.013.

`N.N.[Cl][Pt][Cl]` [Cisplatin] gave an activity (HCM-SANG-0532-C20; [1]) of 0.0676 ± 0.035, an activity (HCM-SANG-0532-C20; [2]) of 0.0959 ± 0.02 and an activity (HCM-SANG-0291-C15; [1]) of 0.132 ± 0.023. For the same compound, the activity (HCM-SANG-0291-C15; [2]) was 0.151 ± 0.025, the activity (HCM-SANG-0266-C20; [1]) was 0.0675 ± 0.021 and the activity (HCM-SANG-0266-C20; [2]) was 0.08 ± 0.081. The activity (HCM-SANG-0270-C20; [1]) was 0.0701 ± 0.024 and the activity (HCM-SANG-0270-C20; [2]) was 0.0677 ± 0.021.
